Results: patent EP0100257A2, “Aminoalkyl naphthalene derivatives, their salts, process for their preparation and the therapeutical use of these derivatives and salts” (DELALANDE S.A., priority 1982, dated 1984)

Key:
[1] = test system: souris; experiment: Phenylbenzoquinone test (analgesic activity), protocol of Siegmund; assay type: in vivo; conditions: ip, mouse, i.p., read-out: Propriétés analgésiques DE 50
[2] = test system: souris; experiment: Antagonism of reserpine-induced ptosis (antidepressant activity), protocol of Gouret and Thomas; assay type: in vivo; conditions: ip, 1 h; mouse, i.p.; ptosis observed one hour after reserpine 2 mg/kg i.v.; read-out: Propriétés antidépressives DE 50
Experimental: L'activité antidépressive a quant à elle été mise en évidence chez la souris par le test de l'antagonisme vis-à-vis du ptosis observé une heure après une injection intraveineuse (2 mg/kg) de réserpine chez la souris selon le protocole décrit par C.

[3] = Acute toxicity (DL 50) in mice; conditions: in vivo, ip, mouse, i.p., read-out: DL 50 souris
From the text: Pour illustrer l'invention, on a rassemblé dans le tableau III ci-après les résultats obtenus dans ces deux tests avec quelques composés selon l'invention. Ce tableau donne en outre la toxicité aiguë (DL 50) des composés testés.

Row | SMILES | ED50 [1] | ED50 [2] | LD50 [3]
1 | CN(C)Cc1cc(-c2ccccc2)c2ccccc2c1 [Numéro de code 2, chlorhydrate de N,N-diméthylaminométhyl-2 phényl-4 naphtalène] | 4.5 mg/kg | 5.3 mg/kg | 70 mg/kg
2 | NCCc1cc(-c2ccccc2)c2ccccc2c1 [Numéro de code 9, chlorhydrate de l'(amino-2) éthyl-2 phényl-4 naphtalène] | 2.2 mg/kg | 3 mg/kg | 58 mg/kg
